Reference: patent US20230226005A1, “Methods of Treating, Ameliorating, Shortening Duration, and/or Reversing Symptoms and/or Complications of a Coronavirus Infection” (Yale University, priority 2020, published 2023)

Test system: SARS-CoV-2
Test: Phase IIa double-blind placebo-controlled study, camostat mesylate 200 mg four times daily for seven days: viral load (log10) by COVID-19 RT-PCR of nasopharyngeal swab and saliva
Format: in vivo
Conditions: for viral load, Fitzmaurice mixed model, Common baseline: day 0; for viral load change Effect (camostat vs placebo), Fitzmaurice mixed model, visit 2 / viral load, Fitzmaurice mixed model, visit 2 / viral load, Fitzmaurice mixed model, visit 2 change: day 2; for viral load change Effect (camostat vs placebo), Fitzmaurice mixed model, visit 3(D4) / viral load, Fitzmaurice mixed model, visit 3(D4) / viral load, Fitzmaurice mixed model, visit 3(D4) change: day 4; for viral load change Effect (camostat vs placebo), Fitzmaurice mixed model, visit 4(D6) / viral load, Fitzmaurice mixed model, visit 4(D6) / viral load, Fitzmaurice mixed model, visit 4(D6) change: day 6

CN(C)C(=O)COC(=O)Cc1ccc(OC(=O)c2ccc(NC(=N)N)cc2)cc1 [camostat, 4-[[4-[(Aminoiminomethyl)amino]benzoyl]oxy]benzeneacetic acid 2-(dimethylamino)-2-oxoethyl ester]
viral load, Fitzmaurice mixed model, Common baseline (N gene): 6.5 (6, 6.9) ^ log10 | viral load change Effect (camostat vs placebo), Fitzmaurice mixed model, visit 2 (N gene): −0.06 (−0.83, 0.7) log10 | viral load, Fitzmaurice mixed model, visit 2 (N gene): 5.3 (4.6, 5.9) log10 | viral load, Fitzmaurice mixed model, visit 2 change (N gene): −1.2 (−1.8, −0.6) log10 | viral load change Effect (camostat vs placebo), Fitzmaurice mixed model, visit 3(D4) (N gene): −0.74 (−1.51, 0.03) log10 | viral load, Fitzmaurice mixed model, visit 3(D4) (N gene): 4.4 (3.8, 5.1) log10 | viral load, Fitzmaurice mixed model, visit 3(D4) change (N gene): −2 (−2.6, −1.5) log10 | viral load change Effect (camostat vs placebo), Fitzmaurice mixed model, visit 4(D6) (N gene): −0.23 (−1.4, 0.94) log10 | viral load, Fitzmaurice mixed model, visit 4(D6) (N gene): 2.8 (2, 3.7) ^ log10 | viral load, Fitzmaurice mixed model, visit 4(D6) change (N gene): −3.6 (−4.5, −2.8) log10 | change in viral load from baseline, Mean (N gene, visit 1 (day 0)): 0.00 log10 | change in viral load from baseline, Median (N gene, visit 1 (day 0)): 0.00 log10 | viral load (log10) Mean (N gene, visit 1 (day 0)): 6.35 log10 | viral load (log10) Median (N gene, visit 1 (day 0)): 6.47 log10 | change in viral load from baseline, Mean (N gene, visit 2 (day 2)): −1.15 log10 | change in viral load from baseline, Median (N gene, visit 2 (day 2)): −1.14 log10 | viral load (log10) Mean (N gene, visit 2 (day 2)): 4.89 log10 | viral load (log10) Median (N gene, visit 2 (day 2)): 4.49 log10 | change in viral load from baseline, Mean (N gene, visit 3 (day 4)): −2.07 log10 | change in viral load from baseline, Median (N gene, visit 3 (day 4)): −2.32 log10 | viral load (log10) Mean (N gene, visit 3 (day 4)): 4.35 log10 | viral load (log10) Median (N gene, visit 3 (day 4)): 4.56 log10 | change in viral load from baseline, Mean (N gene, visit 4 (day 6)): −3.41 log10 | change in viral load from baseline, Median (N gene, visit 4 (day 6)): −3.07 log10 | viral load (log10) Mean (N gene, visit 4 (day 6)): 2.58 log10 | viral load (log10) Median (N gene, visit 4 (day 6)): 2.48 log10 | change in viral load from baseline, Mean (N gene, visit 5 (day 14)): −5.21 log10 | change in viral load from baseline, Median (N gene, visit 5 (day 14)): −5.52 log10 | viral load (log10) Mean (N gene, visit 5 (day 14)): 1.21 log10 | viral load (log10) Median (N gene, visit 5 (day 14)): 0.12 log10 | change in viral load from baseline, Mean (N gene, visit 6 (day 28)): −6.33 log10 | change in viral load from baseline, Median (N gene, visit 6 (day 28)): −6.60 log10 | viral load (log10) Mean (N gene, visit 6 (day 28)): 0.05 log10 | viral load (log10) Median (N gene, visit 6 (day 28)): 0.00 log10 | change in viral load from baseline, Mean (ORF1ab gene, visit 1 (day 0)): 0.00 log10 | change in viral load from baseline, Median (ORF1ab gene, visit 1 (day 0)): 0.00 log10 | viral load (log10) Mean (ORF1ab gene, visit 1 (day 0)): 6.17 log10 | viral load (log10) Median (ORF1ab gene, visit 1 (day 0)): 6.50 log10 | change in viral load from baseline, Mean (ORF1ab gene, visit 2 (day 2)): −1.17 log10 | change in viral load from baseline, Median (ORF1ab gene, visit 2 (day 2)): −1.04 log10 | viral load (log10) Mean (ORF1ab gene, visit 2 (day 2)): 4.71 log10 | viral load (log10) Median (ORF1ab gene, visit 2 (day 2)): 4.20 log10 | change in viral load from baseline, Mean (ORF1ab gene, visit 3 (day 4)): −2.14 log10 | change in viral load from baseline, Median (ORF1ab gene, visit 3 (day 4)): −2.33 log10 | viral load (log10) Mean (ORF1ab gene, visit 3 (day 4)): 4.10 log10 | viral load (log10) Median (ORF1ab gene, visit 3 (day 4)): 4.41 log10 | change in viral load from baseline, Mean (ORF1ab gene, visit 4 (day 6)): −3.39 log10 | change in viral load from baseline, Median (ORF1ab gene, visit 4 (day 6)): −3.41 log10 | viral load (log10) Mean (ORF1ab gene, visit 4 (day 6)): 2.42 log10 | viral load (log10) Median (ORF1ab gene, visit 4 (day 6)): 2.47 log10 | change in viral load from baseline, Mean (ORF1ab gene, visit 5 (day 14)): −5.19 log10 | change in viral load from baseline, Median (ORF1ab gene, visit 5 (day 14)): −5.61 log10 | viral load (log10) Mean (ORF1ab gene, visit 5 (day 14)): 1.04 log10 | viral load (log10) Median (ORF1ab gene, visit 5 (day 14)): 0.00 log10 | change in viral load from baseline, Mean (ORF1ab gene, visit 6 (day 28)): −6.15 log10 | change in viral load from baseline, Median (ORF1ab gene, visit 6 (day 28)): −6.57 log10 | viral load (log10) Mean (ORF1ab gene, visit 6 (day 28)): 0.05 log10 | viral load (log10) Median (ORF1ab gene, visit 6 (day 28)): 0.00 log10 | viral load, Fitzmaurice mixed model, Common baseline (ORF1ab): 6.3 (5.8, 6.8) log10 | viral load change Effect (camostat vs placebo), Fitzmaurice mixed model, visit 2 (ORF1ab): 0.28 (−0.57, 1.13) log10 | viral load, Fitzmaurice mixed model, visit 2 (ORF1ab): 5 (4.3, 5.8) log10 | viral load, Fitzmaurice mixed model, visit 2 change (ORF1ab): −1.2 (−1.9, −0.6) log10 | viral load change Effect (camostat vs placebo), Fitzmaurice mixed model, visit 3(D4) (ORF1ab): −0.46 (−1.3, 0.39) log10 | viral load, Fitzmaurice mixed model, visit 3(D4) (ORF1ab): 4.2 (3.5, 4.9) log10 | viral load, Fitzmaurice mixed model, visit 3(D4) change (ORF1ab): −2.1 (−2.7, −1.5) log10 | viral load change Effect (camostat vs placebo), Fitzmaurice mixed model, visit 4(D6) (ORF1ab): −0.09 (−1.27, 1.08) log10 | viral load, Fitzmaurice mixed model, visit 4(D6) (ORF1ab): 2.6 (1.8, 3.5) log10 | viral load, Fitzmaurice mixed model, visit 4(D6) change (ORF1ab): −3.6 (−4.5, −2.7) log10 | viral load, Fitzmaurice mixed model, Common baseline (S gene): 5 (4.1, 5.9) log10 | viral load change Effect (camostat vs placebo), Fitzmaurice mixed model, visit 2 (S gene): 0.36 (−0.72, 1.43) log10 | viral load, Fitzmaurice mixed model, visit 2 (S gene): 3.6 (2.6, 4.6) log10 | viral load, Fitzmaurice mixed model, visit 2 change (S gene): −1.4 (−2.2, −0.5) log10 | viral load change Effect (camostat vs placebo), Fitzmaurice mixed model, visit 3(D4) (S gene): −0.13 (−1.07, 0.8) log10 | viral load, Fitzmaurice mixed model, visit 3(D4) (S gene): 2.7 (1.9, 3.5) log10 | viral load, Fitzmaurice mixed model, visit 3(D4) change (S gene): −2.3 (−3.1, −1.5) log10 | viral load change Effect (camostat vs placebo), Fitzmaurice mixed model, visit 4(D6) (S gene): 0.19 (−0.98, 1.36) log10 | viral load, Fitzmaurice mixed model, visit 4(D6) (S gene): 1.7 (0.8, 2.6) log10 | viral load, Fitzmaurice mixed model, visit 4(D6) change (S gene): −3.2 (−4.3, −2.2) log10 | change in viral load from baseline, Mean (S gene, visit 1 (day 0)): 0.00 log10 | change in viral load from baseline, Median (S gene, visit 1 (day 0)): 0.00 log10 | viral load (log10) Mean (S gene, visit 1 (day 0)): 4.50 log10 | viral load (log10) Median (S gene, visit 1 (day 0)): 5.02 log10 | change in viral load from baseline, Mean (S gene, visit 2 (day 2)): −1.24 log10 | change in viral load from baseline, Median (S gene, visit 2 (day 2)): −0.89 log10
